# According to ChEMBL document CHEMBL5034004, “Discovery of M3 Antagonist-PDE4 Inhibitor Dual Pharmacology Molecules for the Treatment of Chronic Obstructive Pulmonary Disease” (J Med Chem, 2021):
# Experiments:
# [1] = biological target: T1, Muscarinic acetylcholine receptor M3 (Homo sapiens, UniProt P20309); experiment: Displacement of [3H]-N-methyl Scopolamine Chloride from human M3 receptor membranes incubated for 2 hrs by scintillation counting analysis; format: cell membranes, Cell membrane
# Target sequence in this assay (P20309 whole entry): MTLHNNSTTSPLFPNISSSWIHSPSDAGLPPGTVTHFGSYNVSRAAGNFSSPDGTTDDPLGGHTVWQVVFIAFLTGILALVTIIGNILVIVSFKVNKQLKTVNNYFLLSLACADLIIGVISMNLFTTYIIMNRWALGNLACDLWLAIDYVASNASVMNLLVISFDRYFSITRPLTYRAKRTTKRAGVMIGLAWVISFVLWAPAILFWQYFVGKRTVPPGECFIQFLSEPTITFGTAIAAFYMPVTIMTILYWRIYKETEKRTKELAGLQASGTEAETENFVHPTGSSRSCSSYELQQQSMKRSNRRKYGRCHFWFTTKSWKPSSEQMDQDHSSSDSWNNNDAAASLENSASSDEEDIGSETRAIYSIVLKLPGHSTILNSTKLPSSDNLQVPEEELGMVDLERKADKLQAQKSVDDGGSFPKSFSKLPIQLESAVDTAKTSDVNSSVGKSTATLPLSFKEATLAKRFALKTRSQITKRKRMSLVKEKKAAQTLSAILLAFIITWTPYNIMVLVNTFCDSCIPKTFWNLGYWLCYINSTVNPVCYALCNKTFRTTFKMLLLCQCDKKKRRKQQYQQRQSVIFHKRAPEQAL
# [2] = Antagonist activity at muscarinic M3 receptor in guinea pig trachea assessed as inhibition of carbachol-induced contraction; format: tissue-based, Cavia porcellus
# [3] = biological target: 3',5'-cyclic-AMP phosphodiesterase 4B (Homo sapiens, UniProt Q07343); experiment: Inhibition of human recombinant PDE4B2 assessed as […] in cAMP level incubated for 2 hrs by LANCE Ultra cAMP TR-FRET assay
# Sequence of 3',5'-cyclic-AMP phosphodiesterase 4B (Q07343 whole entry): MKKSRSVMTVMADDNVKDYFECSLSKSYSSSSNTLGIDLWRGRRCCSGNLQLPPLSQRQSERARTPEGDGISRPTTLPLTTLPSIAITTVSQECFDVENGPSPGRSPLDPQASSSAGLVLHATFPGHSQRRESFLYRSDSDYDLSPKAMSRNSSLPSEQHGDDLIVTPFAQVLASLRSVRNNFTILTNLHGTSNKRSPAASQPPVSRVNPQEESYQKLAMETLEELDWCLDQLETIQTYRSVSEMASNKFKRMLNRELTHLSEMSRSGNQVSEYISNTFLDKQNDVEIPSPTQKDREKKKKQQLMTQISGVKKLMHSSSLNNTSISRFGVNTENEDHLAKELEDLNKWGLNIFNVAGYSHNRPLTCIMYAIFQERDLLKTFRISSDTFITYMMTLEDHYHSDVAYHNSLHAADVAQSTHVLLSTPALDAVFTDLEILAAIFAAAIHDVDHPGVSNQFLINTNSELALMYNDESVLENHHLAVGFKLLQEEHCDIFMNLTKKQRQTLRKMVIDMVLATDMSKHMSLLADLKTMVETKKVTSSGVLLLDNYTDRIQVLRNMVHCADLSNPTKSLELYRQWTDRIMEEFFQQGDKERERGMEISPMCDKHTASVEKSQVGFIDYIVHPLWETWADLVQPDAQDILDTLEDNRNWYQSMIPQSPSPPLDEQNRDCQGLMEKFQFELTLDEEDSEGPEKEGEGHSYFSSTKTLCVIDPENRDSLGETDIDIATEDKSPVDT
# [4] = Antiinflammatory activity in human PBMCs assessed as inhibition of LPS-induced TNF-alpha release measured after 18 hrs by ELISA; format: functional, tissue-based, PBMC; details: for pIC50: pbmc; for IC50: Homo sapiens, PBMC, 18 h
# [5] = Kinetic solubility of compound in PBS at pH 7.4 […] incubated for 2 hrs by LC-UV and LC-MS analysis; format: physicochemical; details: read-out: Kinetic_solubility
# Cavia porcellus [6] = experiment: Bronchodilatory activity in IT dosed Dunkin Hartley guinea pig model assessed as inhibition of acetylcholine-induced bronchoconstriction measured after 1 hr by Konzett-Roessler methodology; format: functional
# Cavia porcellus [7] = experiment: Bronchodilatory activity in Dunkin Hartley guinea pig model assessed as inhibition of acetylcholine-induced bronchoconstriction at 3 nmol/kg, IT measured after 1 hr by Konzett-Roessler methodology relative to control; format: functional; details: for inhibition in vivo at 0.003 µmol/kg: Cavia porcellus, Dunkin Hartley
# Cavia porcellus [8] = experiment: Bronchodilatory activity in Dunkin Hartley guinea pig model assessed as inhibition of acetylcholine-induced bronchoconstriction at 3 nmol/kg, IT measured after 16 hrs by Konzett-Roessler methodology relative to control; format: functional; details: for inhibition (INH): 0.003 umol/kg
# [9] = biological target: Muscarinic acetylcholine receptor M3 (Rattus norvegicus, UniProt P08483); experiment: Antagonist activity at muscarinic M3 receptor in rat trachea assessed as inhibition of carbachol-induced contraction; format: functional, tissue-based
# Sequence of Muscarinic acetylcholine receptor M3 (Rattus norvegicus, UniProt P08483) (P08483 whole entry): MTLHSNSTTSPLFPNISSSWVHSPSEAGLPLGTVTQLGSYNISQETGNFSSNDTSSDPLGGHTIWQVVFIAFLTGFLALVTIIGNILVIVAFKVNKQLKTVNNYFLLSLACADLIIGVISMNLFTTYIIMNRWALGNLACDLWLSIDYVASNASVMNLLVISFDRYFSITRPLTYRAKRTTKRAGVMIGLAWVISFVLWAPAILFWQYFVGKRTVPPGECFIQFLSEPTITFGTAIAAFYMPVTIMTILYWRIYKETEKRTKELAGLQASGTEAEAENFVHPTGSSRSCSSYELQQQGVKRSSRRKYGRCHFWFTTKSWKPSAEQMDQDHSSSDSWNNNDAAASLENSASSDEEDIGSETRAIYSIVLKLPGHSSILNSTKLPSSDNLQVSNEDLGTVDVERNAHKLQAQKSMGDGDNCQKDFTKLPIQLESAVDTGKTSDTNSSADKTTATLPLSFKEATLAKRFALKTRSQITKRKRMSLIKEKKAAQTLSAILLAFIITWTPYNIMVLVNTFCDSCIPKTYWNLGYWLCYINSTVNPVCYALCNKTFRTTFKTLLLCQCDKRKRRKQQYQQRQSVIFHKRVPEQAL
# [10] = Toxicity in ferret assessed as nausea-like score at 10 umol/kg, IT observed for 4 hrs (Rvb= 12.83+/-5.10); design: species or system Mustela putorius furo; details: in vivo, inhaled_or_intranasal, dose 10 µmol/kg
# [11] = biological target: T2, Muscarinic acetylcholine receptor M2 (Homo sapiens, UniProt P08172); experiment: Displacement of [3H]-N-methyl Scopolamine Chloride from human M2 receptor membranes incubated for 2 hrs by scintillation counting analysis; format: cell membranes, Cell membrane
# T2 sequence (P08172 whole entry): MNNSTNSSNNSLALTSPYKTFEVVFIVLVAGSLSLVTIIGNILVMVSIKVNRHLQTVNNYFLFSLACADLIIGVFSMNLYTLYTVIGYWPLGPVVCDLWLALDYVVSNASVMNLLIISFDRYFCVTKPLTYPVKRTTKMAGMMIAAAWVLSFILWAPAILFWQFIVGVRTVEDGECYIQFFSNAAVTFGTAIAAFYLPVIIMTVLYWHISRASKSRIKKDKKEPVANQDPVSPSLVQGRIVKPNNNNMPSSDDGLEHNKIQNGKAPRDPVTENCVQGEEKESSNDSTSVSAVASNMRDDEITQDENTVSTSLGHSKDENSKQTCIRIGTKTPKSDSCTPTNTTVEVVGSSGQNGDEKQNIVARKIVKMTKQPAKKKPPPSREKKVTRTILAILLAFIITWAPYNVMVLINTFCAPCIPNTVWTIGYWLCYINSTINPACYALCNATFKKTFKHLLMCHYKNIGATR
# Rattus norvegicus [12] = experiment: Antiinflammatory activity in ovalbumin induced Brown Norway rat airway inflammation model assessed as reduction in eosinophil counts in bronchoalveolar lavage administered via inhalation for 3 consecutive days and measured after 24 hrs post last dose; format: functional; details: inhaled or nasal
# Rattus norvegicus [13] = experiment: Antiinflammatory activity in ovalbumin induced Brown Norway rat airway inflammation model assessed as reduction in eosinophil counts in bronchoalveolar lavage at 1 umol/kg, INH for 3 consecutive days and measured after 24 hrs post last dose; format: functional; design: scale not given: the % may be the effect or the level left; details: dose 1 µmol/kg; time 3 day
# [14] = Plasma protein binding in human assessed as bound fraction at 0.5 to 2 uM measured after 30 mins by HPLC-MS/MS analysis; format: ADME, cell-free; details: dose 0.5-2 µM, read-out: PPB (converted)
# [15] = Plasma protein binding in rat assessed as bound fraction at 0.5 to 2 uM measured after 30 mins by HPLC-MS/MS analysis; format: ADME, cell-free; details: dose 0.5-2 µM, read-out: PPB (converted)
# [16] = Stability in human plasma assessed as half life at 5 uM measured up to 180 mins by HPLC-MS/MS analysis; format: ADME, cell-free
# [17] = Stability in rat plasma assessed as half life at 5 uM measured up to 180 mins by HPLC-MS/MS analysis; format: ADME, cell-free
# [18] = Microsomal stability in human liver microsomes assessed as intrinsic clearance at 1 uM measured up to 60 mins by HPLC-MS/MS analysis; format: ADME, Microsome; details: read-out: CLH
# [19] = Microsomal stability in rat liver microsomes assessed as intrinsic clearance at 1 uM measured up to 60 mins by HPLC-MS/MS analysis; format: ADME, Microsome; details: read-out: CLH
# [20] = Permeability across apical to basolateral side in human Caco2 cells at 10 uM measured after 1 hr by LC-MS/MS analysis; format: ADME, cell-based; details: Caco-2
# [21] = Toxicity in ferret assessed as nausea-like score at 1 umol/kg, IT observed for 4 hrs (Rvb= 12.83+/-5.10); design: species or system Mustela putorius furo; details: in vivo, inhaled_or_intranasal, dose 1 µmol/kg
# [22] = Toxicity in ferret assessed as induction of emesis at 1 umol/kg, IT measured for 4 hrs; design: species or system Mustela putorius furo; details: in vivo, inhaled_or_intranasal, dose 1 µmol/kg
# [23] = Toxicity in ferret assessed as induction of emesis at 10 umol/kg, IT measured for 4 hrs; design: species or system Mustela putorius furo; details: in vivo, inhaled_or_intranasal, dose 10 µmol/kg
# [24] = biological target: T1, Muscarinic acetylcholine receptor M3; experiment: Binding affinity to human M3 receptor membranes assessed as association half life by liquid scintillation counting analysis; details: Cell membrane, filed as antagonist
# Target sequence in this assay (P20309 whole entry, looked up): as the sequence (P20309 whole entry) above
# [25] = biological target: T1, Muscarinic acetylcholine receptor M3; experiment: Binding affinity to human M3 receptor membranes assessed as dissociation half life by liquid scintillation counting analysis; details: Cell membrane, filed as antagonist
# Target sequence in this assay (P20309 whole entry, looked up): as the sequence (P20309 whole entry) above
# Cavia porcellus [26] = experiment: Bronchodilatory activity in Dunkin Hartley guinea pig model assessed as inhibition of acetylcholine-induced bronchoconstriction at 30 nmol/kg, IT measured after 1 hrs by Konzett-Roessler methodology relative to control; format: functional
# Cavia porcellus [27] = experiment: Bronchodilatory activity in Dunkin Hartley guinea pig model assessed as inhibition of acetylcholine-induced bronchoconstriction at 30 nmol/kg, IT measured after 16 hrs by Konzett-Roessler methodology relative to control; format: functional
# Cavia porcellus [28] = experiment: Bronchodilatory activity in Dunkin Hartley guinea pig model assessed as inhibition of acetylcholine-induced bronchoconstriction at 10 nmol/kg, IT measured after 1 hr by Konzett-Roessler methodology relative to control; format: functional
# [29] = Cavia porcellus, Dunkin Hartley, 1 h, read-out: ED50
# [30] = Cavia porcellus, Dunkin Hartley, read-out: ED50
smiles,measurement,setting,value
COc1ccc([C@H](Cc2c(Cl)c[n+]([O-])cc2Cl)OC(=O)c2ccc(CNC(C(=O)O[C@H]3CN4CCC3CC4)c3ccccc3)s2)cc1OC (stereo in doubt; 92a) [listing 1 of 2 here],Ki,[1],0.0631 nM
same,pIC50,[2],9
same,pIC50,[3],8.8
same,pIC50,[4],8.8
same,solubility kinetic at 2 h,[5],145 µM
same,ED50,Cavia porcellus [6]; 1 h,0.0007 µmol/kg
same,inhibition (INH),"Cavia porcellus [7]; 0.003 umol/kg, 1 h",74%
same,inhibition (INH),Cavia porcellus [8],67%
same,IC50,[9],1 nM
same,Activity,[10],12.83
same,Ki,[11],0.2 nM
same,ED50,Rattus norvegicus [12],0.03 µmol/kg
same,Activity,Rattus norvegicus [13],54%
same,"fraction unbound at 0.5 h, up to 2 µM",[14],0.07
same,"fraction unbound at 0.5 h, up to 2 µM",[15],0.086
same,half-life at 5 µM,[16],11 min
same,half-life at 5 µM,[17],9 min
same,microsomal CLint at 1 µM,[18],213 µL/min/mg
same,microsomal CLint at 1 µM,[19],126 µL/min/mg
same,"Papp A→B at 1 h, 10 µM",[20],1.6 ×10⁻⁶ cm/s
same,Activity,[21],30.67
same,Activity,[22],Non-Toxic
same,Activity,[23],Non-Toxic
O=C(Nc1c(Cl)cncc1Cl)c1ccc(OC(F)F)c(OCC2CC2)c1 [ROFLUMILAST],Activity,[10],72.5
same,Activity,[23],Toxic
COc1ccc([C@H](Cc2c(Cl)c[n+]([O-])cc2Cl)OC(=O)c2ccc(CNC(C(=O)O[C@H]3CN4CCC3CC4)c3ccccc3)s2)cc1OC (stereo in doubt; 92a) [listing 2 of 2 here],T1/2,[24],13.7 h
same,T1/2,[25],29.5 h
COc1ccc([C@H](Cc2c(Cl)c[n+]([O-])cc2Cl)OC(=O)c2ccc(CN(C(=O)O[C@H]3CN4CCC3CC4)c3ccccc3F)s2)cc1OC,Ki,[1],0.126 nM
same,pIC50,[2],9.1
same,IC50,[3],0.501 nM
same,IC50,[4],1.26 nM
same,solubility kinetic at 2 h,[5],134 µM
same,ED50,Cavia porcellus [6]; [29],0.0005 µmol/kg
same,inhibition in vivo at 0.003 µmol/kg,Cavia porcellus [7]; 1 h,97%
same,inhibition in vivo at 0.003 µmol/kg,"Cavia porcellus [8]; Cavia porcellus, Dunkin Hartley",38%
COc1ccc([C@H](Cc2c(Cl)c[n+]([O-])cc2Cl)OC(=O)c2ccc(CNC(C(=O)OC3CCN(C)CC3)c3ccccc3)s2)cc1OC (stereo in doubt; 92e),Ki,[1],0.251 nM
same,IC50,[3],0.501 nM
same,pIC50,[4],8.6
same,ED50,Cavia porcellus [6]; [30],0.0041 µmol/kg
same,IC50,[9],1.58 nM
same,inhibition in vivo at 0.03 µmol/kg,Cavia porcellus [26],75%
same,inhibition in vivo at 0.03 µmol/kg,Cavia porcellus [27],2%
COc1ccc([C@H](Cc2c(Cl)c[n+]([O-])cc2Cl)OC(=O)c2ccc(CNC(C(=O)O[C@@H]3CCN(C)C3)c3ccccc3)s2)cc1OC (stereo in doubt; 92f),Ki,[1],0.126 nM
same,IC50,[3],1.58 nM
same,pIC50,[4],8.5
same,ED50,Cavia porcellus [6]; [30],0.001 µmol/kg
same,inhibition in vivo at 0.003 µmol/kg,Cavia porcellus [7],96%
same,IC50,[9],1.58 nM
same,inhibition in vivo at 0.03 µmol/kg,Cavia porcellus [27],41%
COc1ccc([C@H](Cc2c(Cl)c[n+]([O-])cc2Cl)OC(=O)c2ccc(CNC(C(=O)O[C@H]3CN4CCC3CC4)c3ccccc3)s2)cc1OC (stereo in doubt; 91a),Ki,[1],0.126 nM
same,pIC50,[2],8.9
same,IC50,[3],1.58 nM
same,IC50,[4],3.16 nM
same,ED50,Cavia porcellus [6]; 1 h,0.0016 µmol/kg
same,inhibition in vivo at 0.003 µmol/kg,Cavia porcellus [7]; 1 h,73%
same,inhibition (INH),Cavia porcellus [8],32%
same,IC50,[9],2 nM
COc1ccc([C@H](Cc2c(Cl)c[n+]([O-])cc2Cl)OC(=O)c2ccc(CN(C(=O)O[C@H]3CN4CCC3CC4)c3ccccn3)s2)cc1OC,Ki,[1],0.501 nM
same,pIC50,[2],8.7
same,IC50,[3],0.631 nM
same,IC50,[4],0.501 nM
same,inhibition in vivo at 0.01 µmol/kg,Cavia porcellus [28],78%
C[N+]1(C)[C@@H]2C[C@H](OC(=O)C(O)(c3cccs3)c3cccs3)C[C@H]1[C@@H]1O[C@@H]12,T1/2,[24],10.3 h
same,T1/2,[25],22.5 h
COc1ccc([C@H](Cc2c(Cl)c[n+]([O-])cc2Cl)OC(=O)c2ccc(CN(C(=O)O[C@H]3CN4CCC3CC4)c3ccccc3)s2)cc1OC,Ki,[1],0.1 nM
same,pIC50,[2],8.4
same,IC50,[3],1 nM
same,IC50,[4],0.794 nM
same,ED50,Cavia porcellus [6]; [29],0.0016 µmol/kg
same,inhibition in vivo at 0.003 µmol/kg,Cavia porcellus [7]; 1 h,82%
